Assay results as given in US7780966B2, “Artificial invaplex” (The United States of America as represented by the …, priority 2007, dated 2010).

Assays:
[1] = test system: IpaB; conditions: in vivo
[2] = test system: IpaC; conditions: in vivo

In the case of ovalbumin, the “Anti-IpaB Serum IgG (geomean endpoint titer)” value [1] is reported as 90 ± 0 and the “Anti-IpaC Serum IgG (geomean endpoint titer)” value [2] is reported as 90 ± 0.
